What was measured:
RORγ-LBD = target: T1, RORγ-LBD (Homo sapiens, UniProt P51449); assay: RORγ-Ligand Binding Domain (LBD) TR-FRET Assay; type: biochemical; details: for TR-FRET Assay Max Response: maximum response;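 on TR-FRET Assay Max Response: 665/615 nm signal ratio set to 100 without ursolic acid or test compound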
T1 construct: made in house; host or cells: SF9 cells (baculovirus); used as diluted lysate
T1 sequence (P51449 269-508 limits assumed): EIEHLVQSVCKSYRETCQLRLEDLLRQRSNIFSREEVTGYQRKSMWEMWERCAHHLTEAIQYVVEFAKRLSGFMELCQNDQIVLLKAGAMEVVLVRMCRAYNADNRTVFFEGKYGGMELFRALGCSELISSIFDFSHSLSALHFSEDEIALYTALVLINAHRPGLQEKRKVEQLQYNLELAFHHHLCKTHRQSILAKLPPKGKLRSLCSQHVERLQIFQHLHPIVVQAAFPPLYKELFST
Method in brief: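 This TR-FRET coactivator assay pairs baculovirus-expressed His-RORγ-LBD (~3 nM final) with biotin-SRC1 LXXLL peptide at 200 nM final in pH 7.0 Tris/KCl/EDTA/DTT/BSA buffer.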

Gal4-RORγ-LBD = target: T2, Gal4-RORγ-LBD (Homo sapiens, UniProt P51449); assay: Gal4-RORγ Luciferase Reporter Assay in HEK-293T Cells; type: cell-based; details: HEK-293 cells, luciferase reporter; for Gal4-RORγ Assay Max Response: maximum response
T2 construct: expressed in transfected cells
T2 sequence (P51449 269-508 limits assumed): T1 sequence (P51449 269-508 limits assumed)
Method in brief: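 HEK-293 cells were co-transfected with Gal4-RORγ-LBD and a Gal4-luciferase reporter, then exposed overnight at 37 °C to compounds with […] ursolic acid present (0.2% DMSO). Luminescence was read with One-Glo after 10 min at RT, untreated signal was set as 100, and Max Response was taken as the upper plateau of a 4-parameter logistic fit.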

| Structure (SMILES) | EC50 (RORγ-LBD; RORγ-LBD TR-FRET assay) | TR-FRET Assay Max Response (RORγ-LBD; RORγ-LBD TR-FRET assay) | EC50 (Gal4-RORγ-LBD; in presence of ursolic acid) | Gal4-RORγ Assay Max Response (Gal4-RORγ-LBD; in presence of ursolic acid) | EC50 (RORγ-LBD; RORγ-LBD TR-FRET) | EC50 (Gal4-RORγ-LBD; with ursolic acid) |
| --- | --- | --- | --- | --- | --- | --- |
| C/C(=C\c1ccc2c(c1)N(S(=O)(=O)c1cccc(C(F)(F)F)c1)C[C@H](CCC(=O)N1CCCC1)O2)c1c(F)cccc1Cl [Example 126, (S,E)-3-(6-(2-(2-Chloro-6-fluorophenyl)prop-1-en-1-yl)-4-((3-(trifluoromethyl)phenyl)sulfonyl)-3,4-dihydro-2H-benzo[b][1,4]oxazin-2-yl)-1-(pyrrolidin-1-yl)propan-1-one] | < 500 nM | ** (a value in the range of greater than 90 to 150) | < 500 nM | ** (a value in the range of greater than 90 to 150) |  |  |
| C/C(=C\c1ccc2c(c1)N(S(=O)(=O)c1cccc(C(F)(F)F)c1)C[C@H](CCC(=O)N1CCC(C)(C(=O)O)CC1)O2)c1c(F)cccc1Cl [Example 129N, (S,E)-1-(3-(6-(2-(2-chloro-6-fluorophenyl)-prop-1-en-1-yl)-4-((3-(trifluoromethyl)phenyl)sulfonyl)-3,4-dihydro-2H-benzo[b][1,4]oxazin-2-yl)propanoyl)-4-methylpiperidine-4-carboxylic acid] | < 500 nM | *** (a value in the range of greater than 150 to 200) | < 500 nM | ** (a value in the range of greater than 90 to 150) |  |  |
| O=C(O)CC[C@H]1CN(S(=O)(=O)c2cc(C(F)(F)F)cnc2OCCO)c2cc(CC3CCCCC3)ccc2O1 [Example 95D, (S)-3-(6-(cyclohexylmethyl)-4-((2-(2-hydroxyethoxy)-5-(trifluoromethyl)pyridin-3-yl)sulfonyl)-3,4-dihydro-2H-benzo[b][1,4]oxazin-2-yl)propanoic acid] |  |  |  |  | < 500 nM | 500 to 5000 nM |
| CCOc1nn(CC)cc1S(=O)(=O)N1C[C@H](CCC(=O)OC)Oc2ccc(/C=C/c3c(F)cccc3C(F)(F)F)cc21 [Example 87, Methyl (S,E)-3-(4-((3-ethoxy-1-ethyl-1H-pyrazol-4-yl)sulfonyl)-6-(2-fluoro-6-(trifluoromethyl)styryl)-3,4-dihydro-2H-benzo[b][1,4]oxazin-2-yl)propanoate] |  |  |  |  | < 500 nM | 500 to 5000 nM |
| C/C(=C\c1ccc2c(c1)N(S(=O)(=O)c1cccc(C(F)(F)F)c1)[C@H](C)[C@H](C(=O)O)C2)c1c(F)cccc1Cl [Example 142, (2R,3R)-7-((E)-2-(2-Chloro-6-fluorophenyl)prop-1-en-1-yl)-2-methyl-1-((3-(trifluoromethyl)phenyl)sulfonyl)-1,2,3,4-tetrahydroquinoline-3-carboxylate] | < 500 nM | ** (a value in the range of greater than 90 to 150) | < 500 nM | ** (a value in the range of greater than 90 to 150) |  |  |
| COC(=O)CC[C@H]1CN(S(=O)(=O)c2cccc(C(C)C)c2)c2cc(/C=C(\C)c3c(F)cccc3Cl)ccc2O1 [Example 86R, (S,E)-methyl 3-(6-(2-(2-chloro-6-fluorophenyl)prop-1-en-1-yl)-4-((3-isopropylphenyl)sulfonyl)-3,4-dihydro-2H-benzo[b][1,4]oxazin-2-yl)propanoate] |  |  |  |  | < 500 nM | < 500 nM |
| C/C(=C\c1ccc2c(c1)N(S(=O)(=O)c1cccc(C(F)(F)F)c1)C[C@H](O)C2)c1c(F)cccc1Cl [Example 162, (R,E)-7-(2-(2-Chloro-6-fluorophenyl)prop-1-en-1-yl)-1-((3-(trifluoromethyl)phenyl)sulfonyl)-1,2,3,4-tetrahydroquinolin-3-ol] | < 500 nM | *** (a value in the range of greater than 150 to 200) | < 500 nM | ** (a value in the range of greater than 90 to 150) |  |  |
| O=C(O)CC[C@H]1CN(S(=O)(=O)c2cccc(C(F)(F)F)c2)c2cc(CC3CCCCC3)ccc2O1 [Example 93, (S)-3-(6-(Cyclohexylmethyl)-4-((3-(trifluoromethyl)phenyl)sulfonyl)-3,4-dihydro-2H-benzo[b][1,4]oxazin-2-yl)propanoic acid] |  |  |  |  | < 500 nM | 500 to 5000 nM |
| CCOc1nn(CC)cc1S(=O)(=O)N1C[C@H](CCC(=O)O)Oc2ccc(/C=C/c3c(Cl)cccc3C(C)(F)F)cc21 [Example 89FE, (S,E)-3-(6-(2-chloro-6-(1,1-difluoroethyl)styryl)-4-((3-ethoxy-1-ethyl-1H-pyrazol-4-yl)sulfonyl)-3,4-dihydro-2H-benzo[b][1,4]oxazin-2-yl)propanoic acid] |  |  |  |  | < 500 nM | < 500 nM |
| C/C(=C\c1ccc2c(c1)N(S(=O)(=O)c1cccc(C(F)(F)F)c1)C[C@H](CCCN1CCS(=O)(=O)CC1)O2)c1c(F)cccc1Cl [Example 119H, (S,E)-4-(3-(6-(2-(2-chloro-6-fluorophenyl)prop-1-en-1-yl)-4-((3-(trifluoromethyl)-phenyl)sulfonyl)-3,4-dihydro-2H-benzo[b][1,4]oxazin-2-yl)propyl)thiomorpholine 1,1-dioxide] | < 500 nM | *** (a value in the range of greater than 150 to 200) | < 500 nM | ** (a value in the range of greater than 90 to 150) |  |  |
| CCOc1ncc(C(F)(F)F)cc1S(=O)(=O)N1C[C@H](CCC(=O)OC)Oc2ccc(/C=C/c3c(OC)cccc3C(F)(F)F)cc21 [Example 89EU, methyl (S,E)-3-(4-((2-ethoxy-5-(trifluoromethyl)pyridin-3-yl)sulfonyl)-6-(2-methoxy-6-(trifluoromethyl)styryl)-3,4-dihydro-2H-benzo[b][1,4]-oxazin-2-yl)propanoate] |  |  |  |  | < 500 nM | 500 to 5000 nM |
| CCOc1ncc(C(F)(F)F)cc1S(=O)(=O)N1C[C@H](CCC(=O)OC)Oc2ccc(/C=C(\C)c3c(Cl)cccc3C(F)(F)F)cc21 [Example 76, Methyl (S,E)-3-(6-(2-(2-chloro-6-(trifluoromethyl)phenyl)prop-1-en-1-yl)-4-((2-ethoxy-5-(trifluoromethyl)pyridin-3-yl)sulfonyl)-3,4-dihydro-2H-benzo[b][1,4]oxazin-2-yl)propanoate] |  |  |  |  | < 500 nM | 500 to 5000 nM |
| C/C(=C\c1ccc2c(c1)N(S(=O)(=O)c1ccc(F)c(OC(F)F)c1)C[C@H](CCC(=O)O)O2)c1c(F)cccc1Cl [Example 86AS, (S,E)-3-(6-(2-(2-chloro-6-fluorophenyl)prop-1-en-1-yl)-4-((3-(difluoromethoxy)-4-fluorophenyl)sulfonyl)-3,4-dihydro-2H-benzo[b][1,4]oxazin-2-yl)propanoic acid] |  |  |  |  | < 500 nM | < 500 nM |
| CCOc1nn(CC)cc1S(=O)(=O)N1C[C@H](CCC(=O)O)Oc2ccc(/C=C/c3ccccc3OC(F)(F)F)cc21 [Example 89BA, (S,E)-3-(4-((3-ethoxy-1-ethyl-1H-pyrazol-4-yl)sulfonyl)-6-(2-(trifluoromethoxy)styryl)-3,4-dihydro-2H-benzo[b][1,4]oxazin-2-yl)propanoic acid] |  |  |  |  | < 500 nM | 500 to 5000 nM |
| CCOc1ncc(Cl)cc1S(=O)(=O)N1C[C@H](CCC(=O)O)Oc2ccc(/C=C/c3c(F)cccc3Cl)cc21 [Example 89CX, (S,E)-3-(4-((5-chloro-2-ethoxypyridin-3-yl)sulfonyl)-6-(2-chloro-6-fluorostyryl)-3,4-dihydro-2H-benzo[b][1,4]oxazin-2-yl)propanoic acid] |  |  |  |  | < 500 nM | 500 to 5000 nM |

— patent US9896441B2 (Lycera Corporation, priority 2014, dated 2018)
